Experimental data as given in PubChem BioAssay (NCI).
Where “and” joins values, the source holds several entries; their conditions need not be identical. Equal values may be shown once.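 All cell lines were grown in 96-well plates and treated with compound for 48 hours. At the GI50, growth is halved. At the TGI there is no net growth.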

Legend:
Assay in all cases: DTP human tumour cell line panel, 48 h
SW-620 colon = system: SW-620 colon
OVCAR-3 ovarian = system: OVCAR-3 ovarian
CCRF-CEM leukemia = system: CCRF-CEM leukemia
M14 melanoma = system: M14 melanoma
RXF 393 renal = system: RXF 393 renal
MALME-3M melanoma = system: MALME-3M melanoma
HT29 colon = system: HT29 colon
SNB-19 CNS = system: SNB-19 CNS
HOP-92 NSCLC = system: HOP-92 NSCLC
SF-295 CNS = system: SF-295 CNS

SMILES | GI50 (SW-620 colon) | TGI (SW-620 colon) | GI50 (OVCAR-3 ovarian) | TGI (OVCAR-3 ovarian) | GI50 (CCRF-CEM leukemia) | TGI (CCRF-CEM leukemia) | GI50 (M14 melanoma) | TGI (M14 melanoma) | GI50 (RXF 393 renal) | TGI (RXF 393 renal) | GI50 (MALME-3M melanoma) | TGI (MALME-3M melanoma) | GI50 (HT29 colon) | TGI (HT29 colon) | GI50 (SNB-19 CNS) | TGI (SNB-19 CNS) | GI50 (HOP-92 NSCLC) | TGI (HOP-92 NSCLC) | GI50 (SF-295 CNS) | TGI (SF-295 CNS)
Fc1ccc(-c2nn3c(CNc4ccccc4)nnc3s2)cc1 | 40.6 µM | > 100 µM | 12.2 µM | 49.1 µM | 36.2 µM | > 100 µM | 35.5 µM | > 100 µM | > 100 µM | > 100 µM | 21.2 µM | 94.6 µM | 39.2 µM | > 100 µM | 33.6 µM | > 100 µM | 17.5 µM | > 100 µM | 20.5 µM | 59.3 µM
CN1CCC(CNc2ccc3ncc(-c4cccc(OC(F)(F)F)c4)n3n2)CC1 | 2.03 µM and 2.13 µM | 4.77 µM and 6.09 µM | 1.7 µM and 2.15 µM | 3.79 µM and > 10 µM | 3.36 µM and 2.03 µM | 15.9 µM and 5.78 µM | 1.74 µM and 1.48 µM | 3.5 µM and 3.15 µM | 1.44 µM and 1.72 µM | 3.68 µM and 6.48 µM | 1.64 µM and 1.65 µM | 3.25 µM and 3.23 µM | 1.75 µM and 1.85 µM | 4.49 µM and 5.15 µM | 4.06 µM and 2.95 µM | 16.5 µM and > 10 µM | 1.2 µM and 0.383 µM | 3.81 µM and 3.66 µM | 1.67 µM and 1.55 µM | 3.48 µM and 3.87 µM
C[C@@H](N)C1CCC(C(=O)Nc2ccncc2)CC1 (stereo partly drawn) | > 100 µM | > 100 µM | > 100 µM | > 100 µM | 51.2 µM | > 100 µM | > 100 µM | > 100 µM | > 100 µM | > 100 µM | > 100 µM | > 100 µM | > 100 µM | > 100 µM | > 100 µM | > 100 µM | 0.855 µM | > 100 µM | > 100 µM | > 100 µM
Cc1ccc(S(=O)(=O)Oc2ccc([N+](=O)[O-])cc2[N+](=O)[O-])cc1 | 4.04 µM | 24.9 µM | 3.24 µM | 11.5 µM | 0.6 µM | 15.7 µM | 2.57 µM | 10.9 µM | 7.89 µM | 20.7 µM | 10.7 µM | 29.8 µM | 3.63 µM | 58.7 µM | 17.2 µM | 38.1 µM | 4.34 µM | 21.7 µM | 10.4 µM | 25.2 µM
CCOC(CCCNCCCn1c2c(c3cc(OC)c(OC)cc3c1=O)C(=O)c1cc3c(cc1-2)OCO3)OCC | 2.63 µM | 10.5 µM | 7.65 µM | 14.3 µM | 0.759 µM | 6.24 µM | 5.25 µM | 11.1 µM | 4.45 µM | 10.7 µM | 6.77 µM | 13.6 µM | 5.12 µM | 10.9 µM | 6.13 µM | 12.3 µM | 0.126 µM | 8.47 µM | 1.45 µM | 8.6 µM
CCCOc1ccc(-c2nc(-c3ccc(N=Cc4ccc(N(CCOS(C)(=O)=O)CCOS(C)(=O)=O)cc4C)cc3)cs2)cc1 | – | > 100 µM | – | 55.4 µM | – | > 100 µM | – | > 86.4 µM | – | 28.9 µM | – | > 95.6 µM | – | > 73.9 µM | – | > 94.5 µM | – | 52.7 µM | – | 45.5 µM
COc1c2ccoc2cc2oc(=O)ccc12 | – | > 100 µM | – | > 100 µM | – | > 100 µM | – | > 100 µM | – | > 100 µM | – | > 100 µM | – | > 100 µM | – | > 100 µM | – | > 100 µM | – | > 100 µM
CN[C@@H](C)C(=O)N[C@H]1CN(C(=O)CC(C)C)CC[C@H]2CC[C@@H](C(=O)NC(c3ccccc3)c3ccccc3)N2C1=O | > 100 µM | > 100 µM | > 89.7 µM | > 100 µM | > 100 µM | > 100 µM | > 100 µM | > 100 µM | 7.38 µM | > 100 µM | 4.29 µM | > 53.9 µM | 53.2 µM | > 100 µM | > 100 µM | > 100 µM | – | > 45.4 µM | > 100 µM | > 100 µM
O=C(CCCCCCCn1cc(-c2cccnc2)nn1)Nc1ccccc1-c1ccccc1 | 0.0526 µM | > 100 µM | 5.72 µM | > 100 µM | 0.435 µM | > 100 µM | 0.0914 µM | 16.5 µM | > 43.6 µM | > 100 µM | 5.71 µM | 41.8 µM | 0.506 µM | > 100 µM | 1.74 µM | > 100 µM | 31.8 µM | > 100 µM | 0.403 µM | –
N.N.N.N.O=NN1CCCCCC1(P(=O)([O-])[O-])P(=O)([O-])[O-].[Pt+4].[Pt+4] | > 100 µM | > 100 µM | > 100 µM | > 100 µM | > 100 µM | > 100 µM | > 100 µM | > 100 µM | > 100 µM | > 100 µM | > 100 µM | > 100 µM | > 100 µM | > 100 µM | > 100 µM | > 100 µM | > 100 µM | > 100 µM | > 100 µM | > 100 µM
C[C@H]1CC[C@H]([C@@H](C)[C@H]2[C@@H](O)C[C@H]3[C@@H]4CC[C@H]5C[C@@H](O)CC[C@]5(C)[C@H]4CC[C@]23C)NC1 | – | 41.9 µM | – | 39.8 µM | – | 29 µM | – | 59.2 µM | – | 47.7 µM | – | 33 µM | – | 34.2 µM | – | 50.2 µM | – | 33.7 µM | – | 39.2 µM
O=C(c1ccc(OCCN2CCCCC2)cc1)c1c(-c2ccc(O)cc2)sc2cc(O)ccc12 | 7.64 µM and 13.4 µM | 22 µM and 39.2 µM | 10 µM and 14 µM | 21.7 µM and 31.5 µM | 5.55 µM and 1.85 µM | 43.9 µM and > 29.8 µM | 3.23 µM and 10.3 µM | 11.1 µM and 32.3 µM | 5.2 µM and 4.32 µM | 19.1 µM and 15.9 µM | 6.05 µM and 13.5 µM | 23.5 µM and 28.9 µM | 14.9 µM and 4.1 µM | 32.3 µM and 33.4 µM | 13.7 µM and 15 µM | 30.5 µM and 34.2 µM | 1.43 µM and 5.51 µM | 6.72 µM and 29 µM | 2.99 µM and 7.88 µM | 11 µM and 28.5 µM
CSc1nc(NC2OCC(OC(C)=O)C(OC(C)=O)C2OC(C)=O)c(N=C(C)C(C)=O)c(=O)n1C (stereo not drawn) | – | > 100 µM | – | > 100 µM | – | > 100 µM | – | > 100 µM | – | > 100 µM | – | > 100 µM | – | > 100 µM | – | > 100 µM | – | > 100 µM | – | > 100 µM
